The source of these data is patent US20240150298A1, “ANTIBACTERIAL COMPOUNDS” (Blacksmith Medicines, Inc., priority 2021, published 2024).

In brackets after ≈: the same amount, converted by molar mass.

What all share (test): Bacterial susceptibility testing, MIC by broth microdilution (CLSI)
Format in all cases: cell-based

For assay [1], the system named is P. aeruginosa 209 PAO1. To be noted: Pseudomonas aeruginosa, PAO1, broth microdilution, 35° C., 18-24 h; read-out: MIC P. aeruginosa 209 PAO1. The method, then: (§1) Minimal inhibitory concentrations (MIC) were determined by the broth microdilution method in accordance with the Clinical and Laboratory Standards Institute (CLSI) guidelines. In brief, organism suspensions were adjusted to a final inoculum between 3×10^5 and 7×10^5 colony-forming units (CFU)/mL. Drug dilutions and inocula were made in sterile, cation adjusted Mueller-Hinton Broth (Beckton Dickinson). In wells, an inoculum volume of 100 μL was mixed to 2 μL of DMSO with 2-fold serial dilutions of drug. All inoculated microdilution trays were incubated in ambient air at 35° C. for 18-24 h. Following incubation, the lowest concentration of the drug that prevented visible growth (OD600 nm<0.05) was recorded as the MIC. Performance of the assay was monitored by the use of laboratory quality-control strains and compounds with defined MIC spectrum, in accordance with CLSI guidelines.

For assay [2], the system named is P. aeruginosa ATCC27835. To be noted: Pseudomonas aeruginosa, ATCC27835, broth microdilution, 35° C., 18-24 h; read-out: MIC P. aeruginosa ATCC27835. The protocol:
as §1

Assay [3] has as its system E. coli ATCC25922. The settings on record: Escherichia coli, ATCC25922, broth microdilution, 35° C., 18-24 h; read-out: MIC E. coli ATCC25922. The method, then: as §1
(In broth dilution the organism is exposed to a series of concentrations in liquid medium.)

The test system of assay [4] is K. pneumoniae ATCC13883. To be noted: Klebsiella pneumoniae, ATCC13883, broth microdilution, 35° C., 18-24 h; read-out: MIC K. pneumoniae ATCC13883. The protocol: as §1

By MIC is commonly meant the smallest concentration in the dilution series that meets the test's criterion for growth inhibition. Regarding `C[C@H](O)c1nccn1[C@@H](/C=C/c1ccc(-c2ccc(C3CC(CNCC#N)C3)cc2)cc1)CO` (stereo partly drawn) [Compound 56, 2-(((3-(4′-((S,E)-4-hydroxy-3-(2-((S)-1-hydroxyethyl)-1H-imidazol-1-yl)but-1-en-1-yl)-[1,1′-biphenyl]-4-yl)cyclobutyl)methyl)amino) acetonitrile], the MIC in assay [1] worked out at 2 µg/mL (≈ 4.38 µM); in assay [2], 4 µg/mL (≈ 8.76 µM); in assay [3], 0.25 µg/mL (≈ 0.548 µM); in assay [4], 0.5 µg/mL (≈ 1.1 µM).

Regarding `C[C@H](O)c1nccn1C/C=C/c1ccc(-c2ccc(OCCN3CC(CN)C3)cc2)cc1` [Compound 6, (S,E)-1-(1-(3-(4′-(2-(3-(aminomethyl)azetidin-1-yl)ethoxy)-[1,1′-biphenyl]-4-yl)allyl)-1H-imidazol-2-yl)ethan-1-ol], the MIC in assay [1] came out at 4 µg/mL (≈ 9.25 µM); in assay [2], 4 µg/mL (≈ 9.25 µM); in assay [3], 4 µg/mL (≈ 9.25 µM); in assay [4] it was 16 µg/mL (≈ 37 µM).

Regarding `C[C@H](O)c1nccn1[C@@H](/C=C/c1ccc(-c2ccc(OCC(O)CN(C)C)cc2)cc1)CO` (mixture of isomers) [Compound 21, (2S,E)-4-(4′-(3-(dimethylamino)-2-hydroxypropoxy)-[1,1′-biphenyl]-4-yl)-2-(2-((S)-1-hydroxyethyl)-1H-imidazol-1-yl)but-3-en-1-ol], the MIC in assay [1] amounted to 8 µg/mL (≈ 17.7 µM); in assay [2], 4 µg/mL (≈ 8.86 µM); in assay [3], 16 µg/mL (≈ 35.4 µM); in assay [4] it was 64 µg/mL (≈ 142 µM).

Take `C[C@H](O)c1nccn1C/C=C/c1ccc(-c2ccc(OCCN3CCN(CCN)CC3)cc2)cc1` [Compound 5, (S,E)-1-(1-(3-(4′-(2-(4-(2-aminoethyl)piperazin-1-yl)ethoxy)-[1,1′-biphenyl]-4-yl)allyl)-1H-imidazol-2-yl)ethan-1-ol]: the MIC in assay [1] was found to be 4 µg/mL (≈ 8.41 µM); in assay [2] it was 4 µg/mL (≈ 8.41 µM); in assay [3] it was 2 µg/mL (≈ 4.2 µM); in assay [4], 4 µg/mL (≈ 8.41 µM).

Turning to `C[C@H](O)c1nccn1[C@@H](/C=C/c1ccc(-c2ccc(C3CC(C(=O)NCC(O)CO)C3)cc2)cc1)CO` (stereo partly drawn) [Compound 52, N-(2,3-dihydroxypropyl)-3-(4′-((S,E)-4-hydroxy-3-(2-((S)-1-hydroxyethyl)-1H-imidazol-1-yl)but-1-en-1-yl)-[1,1′-biphenyl]-4-yl)cyclobutane-1-carboxamide], the MIC in assay [1] was found to be 4 µg/mL (≈ 7.91 µM); in assay [2] it was 4 µg/mL (≈ 7.91 µM); in assay [3], 4 µg/mL (≈ 7.91 µM); in assay [4], 16 µg/mL (≈ 31.6 µM).

For `C[C@H](O)c1nccn1[C@@H](/C=C/c1ccc(-c2ccc(C3CC(N)C3)cc2)cc1)CO` (stereo partly drawn) [Compound 48, (S,E)-4-(4′-(3-aminocyclobutyl)-[1,1′-biphenyl]-4-yl)-2-(2-((S)-1-hydroxyethyl)-1H-imidazol-1-yl)but-3-en-1-ol], the MIC was found to be 2 µg/mL (≈ 4.96 µM) in assay [1], 2 µg/mL (≈ 4.96 µM) in assay [2], 2 µg/mL (≈ 4.96 µM) in assay [3] and 16 µg/mL (≈ 39.7 µM) in assay [4].

As to `C[C@H](O)c1nccn1[C@@H](/C=C/c1ccc(-c2ccc(O[C@@H]3C[C@H]3N)cc2)cc1)CO` (single isomer, unassigned) [Compound 15], the minimum inhibitory concentration (MIC) in assay [1] is 0.5 µg/mL (≈ 1.23 µM); in assay [2], 2 µg/mL (≈ 4.93 µM); in assay [3], 0.5 µg/mL (≈ 1.23 µM).

Turning to `C[C@H](O)c1nccn1[C@@H](/C=C/c1ccc(-c2ccc(C3CC(C(=O)NCc4ncon4)C3)cc2)cc1)CO` (stereo partly drawn) [Compound 53, N-((1,2,4-oxadiazol-3-yl)methyl)-3-(4′-((S,E)-4-hydroxy-3-(2-((S)-1-hydroxyethyl)-1H-imidazol-1-yl)but-1-en-1-yl)-[1,1′-biphenyl]-4-yl)cyclobutane-1-carboxamide], the MIC in assay [1] was found to be 2 µg/mL (≈ 3.89 µM); in assay [2], 4 µg/mL (≈ 7.79 µM); in assay [3], 0.5 µg/mL (≈ 0.974 µM); in assay [4], 1 µg/mL (≈ 1.95 µM).

With `C[C@H](O)c1nccn1[C@@H](/C=C/c1ccc(-c2ccc(C3CC(NCc4ncon4)C3)cc2)cc1)CO` (stereo partly drawn) [Compound 42, (S,E)-4-(4′-(3-(((1,2,4-oxadiazol-3-yl)methyl)amino)cyclobutyl)-[1,1′-biphenyl]-4-yl)-2-(2-((S)-1-hydroxyethyl)-1H-imidazol-1-yl)but-3-en-1-ol], the MIC in assay [1] stood at 4 µg/mL (≈ 8.24 µM); in assay [2], 4 µg/mL (≈ 8.24 µM); in assay [4], 0.5 µg/mL (≈ 1.03 µM).

In the case of `C[C@H](O)c1nccn1[C@@H](/C=C/c1ccc(-c2ccc(C3CC(NC(C#N)CO)C3)cc2)cc1)CO` (stereo partly drawn) [Compound 41, 3-hydroxy-2-((3-(4′-((S,E)-4-hydroxy-3-(2-((S)-1-hydroxyethyl)-1H-imidazol-1-yl)but-1-en-1-yl)-[1,1′-biphenyl]-4-yl)cyclobutyl)amino)propanenitrile], the MIC in assay [1], in assay [2] and in assay [4] was 2 µg/mL (≈ 4.23 µM) in each case.

`C[C@H](O)c1nccn1[C@@H](/C=C/c1ccc(-c2ccc(C3CC(CN4CC(S(C)(=O)=O)C4)C3)cc2)cc1)CO` (stereo partly drawn) [Compound 58, (S,E)-2-(2-((S)-1-hydroxyethyl)-1H-imidazol-1-yl)-4-(4′-(3-((3-(methylsulfonyl)azetidin-1-yl)methyl)cyclobutyl)-[1,1′-biphenyl]-4-yl)but-3-en-1-ol]: the MIC in assay [1] was 4 µg/mL (≈ 7.47 µM); in assay [2] it was 8 µg/mL (≈ 14.9 µM); in assay [3], 1 µg/mL (≈ 1.87 µM); in assay [4], 2 µg/mL (≈ 3.73 µM).

Consider `C[C@H](O)c1nccn1[C@@H](/C=C/c1ccc(-c2ccc(OCCC(O)CO)cc2)cc1)CO` (mixture of isomers) [Compound 43, 4-((4′-((S,E)-4-hydroxy-3-(2-((S)-1-hydroxyethyl)-1H-imidazol-1-yl)but-1-en-1-yl)-[1,1′-biphenyl]-4-yl)oxy)butane-1,2-diol], for which the MIC in assay [1], in assay [2] and in assay [4] was 2 µg/mL (≈ 4.56 µM) each time.

With `C[C@H](O)c1nccn1[C@@H](/C=C/c1ccc(-c2ccc(C3CC(NCc4cocn4)C3)cc2)cc1)CO` (stereo partly drawn) [Compound 40, (S,E)-2-(2-((S)-1-hydroxyethyl)-1H-imidazol-1-yl)-4-(4′-(3-((oxazol-4-ylmethyl)amino)cyclobutyl)-[1,1′-biphenyl]-4-yl)but-3-en-1-ol], the MIC in assay [1] is 2 µg/mL (≈ 4.13 µM); in assay [2] it was 2 µg/mL (≈ 4.13 µM); in assay [4] it was 1 µg/mL (≈ 2.06 µM).

Take `C[C@H](O)c1nccn1[C@@H](/C=C/c1ccc(-c2ccc(OCC3(CO)COC3)cc2)cc1)CO` [Compound 68, (S,E)-2-(2-((S)-1-hydroxyethyl)-1H-imidazol-1-yl)-4-(4′-((3-(hydroxymethyl)oxetan-3-yl)methoxy)-[1,1′-biphenyl]-4-yl)but-3-en-1-ol]: the MIC was determined as 4 µg/mL (≈ 8.88 µM) in assay [1], 4 µg/mL (≈ 8.88 µM) in assay [2], 1 µg/mL (≈ 2.22 µM) in assay [3] and 2 µg/mL (≈ 4.44 µM) in assay [4].

Consider `C[C@H](O)c1nccn1[C@@H](/C=C/c1ccc(-c2ccc(C3CC(C(=O)NCCO)C3)cc2)cc1)CO` (stereo partly drawn) [Compound 49, 3-(4′-((S,E)-4-hydroxy-3-(2-((S)-1-hydroxyethyl)-1H-imidazol-1-yl)but-1-en-1-yl)-[1,1′-biphenyl]-4-yl)-N-(2-hydroxyethyl)cyclobutane-1-carboxamide], for which the MIC in assay [1] was determined as 2 µg/mL (≈ 4.21 µM); in assay [2], 2 µg/mL (≈ 4.21 µM); in assay [3], 4 µg/mL (≈ 8.41 µM); in assay [4], 4 µg/mL (≈ 8.41 µM).

As to `C[C@H](O)c1nccn1[C@@H](/C=C/c1ccc(-c2ccc(C3CC(NCc4noc(C(N)=O)n4)C3)cc2)cc1)CO` (stereo partly drawn) [Compound 47, 3-(((3-(4′-((S,E)-4-hydroxy-3-(2-((S)-1-hydroxyethyl)-1H-imidazol-1-yl)but-1-en-1-yl)-[1,1′-biphenyl]-4-yl)cyclobutyl)amino)methyl)-1,2,4-oxadiazole-5-carboxamide], the minimum inhibitory concentration (MIC) in assay [1] is 4 µg/mL (≈ 7.57 µM); in assay [2], 4 µg/mL (≈ 7.57 µM); in assay [3] it was 0.5 µg/mL (≈ 0.946 µM); in assay [4], 1 µg/mL (≈ 1.89 µM).

For `COC[C@H](N)COc1ccc(-c2ccc(/C=C/[C@@H](CO)n3ccnc3[C@H](C)O)cc2)cc1` [Compound 31, (2S,E)-4-(4′-(2-amino-3-methoxypropoxy)-[1,1′-biphenyl]-4-yl)-2-(2-((S)-1-hydroxyethyl)-1H-imidazol-1-yl)but-3-en-1-ol], the MIC in assay [1] turned out to be 1 µg/mL (≈ 2.29 µM); in assay [2], 4 µg/mL (≈ 9.14 µM); in assay [3], 2 µg/mL (≈ 4.57 µM); in assay [4], 4 µg/mL (≈ 9.14 µM).

As for `C[C@H](O)c1nccn1[C@@H](/C=C/c1ccc(-c2ccc(C3CC(C(=O)NCc4cocn4)C3)cc2)cc1)CO` (stereo partly drawn) [Compound 54, 3-(4′-((S,E)-4-hydroxy-3-(2-((S)-1-hydroxyethyl)-1H-imidazol-1-yl)but-1-en-1-yl)-[1,1′-biphenyl]-4-yl)-N-(oxazol-4-ylmethyl)cyclobutane-1-carboxamide], the MIC in assay [1] amounted to 2 µg/mL (≈ 3.9 µM); in assay [2] it was 4 µg/mL (≈ 7.8 µM); in assay [3], 0.5 µg/mL (≈ 0.975 µM); in assay [4] it was 1 µg/mL (≈ 1.95 µM).

As to `C[C@H](O)c1nccn1[C@@H](/C=C/c1ccc(-c2ccc(OC[C@H](N)CO)cc2)cc1)CO` (single isomer, unassigned) [Compound 9], the MIC in assay [1] and in assay [2] was 2 µg/mL (≈ 4.72 µM) each time.

`C[C@H](O)c1nccn1[C@@H](/C=C/c1ccc(-c2ccc(OC3CN(CCO)C3)cc2)cc1)CO` [Compound 20, (S,E)-2-(2-((S)-1-hydroxyethyl)-1H-imidazol-1-yl)-4-(4′-((1-(2-hydroxyethyl)azetidin-3-yl)oxy)-[1,1′-biphenyl]-4-yl)but-3-en-1-ol]: the MIC in assay [1] turned out to be 2 µg/mL (≈ 4.45 µM); in assay [2], 2 µg/mL (≈ 4.45 µM); in assay [3] it was 4 µg/mL (≈ 8.9 µM).
